{"source": "patent US8969397B2", "about": "“Systems and methods to treat pain locally” (Warsaw Orthopedic, Inc., priority 2004, dated 2015)", "key": {"[1]": {"system": "chronic constriction injury (CCl) of the sciatic nerve", "experiment": "Thermal hyperalgesia test (paw withdrawal latency) after chronic constriction injury", "type": "in vivo, rat", "conditions": "for increase in paw withdrawal latency over baseline: 0.1 mg/kg; for mean paw withdrawal latency over baseline: Example 1, FIG. 2", "experimental": "(§1) The behavioral animal model of chronic constriction injury (“CCl”) was chosen to evaluate the efficacy of NFκB inhibitors as a pain treatment. This model may mimic pain associated with sciatica in humans. To induce CCl, each animal was anesthetized by intraperitoneal (“i.p.”) injection of sodium pentobarbital at a dose of 60 mg/kg body weight. The animal's right common sciatic nerve was exposed and freed from adherent tissue at mid-thigh by separating the muscle (biceps femoris) by blunt dissection. Four loose ligatures were placed 1 mm apart, using chromic gut (4-0 absorbable suture, Jorgensen Laboratories Inc., Loveland, Colo.).\nAnimal behavioral testing was conducted on Days 7, 14 and 21 after CCl. In the thermal hyperalgesia test, animals were placed in the clear plastic chamber of a plantar analgesia instrument and allowed to acclimate to the environment for 15 minutes. After the acclimation period, a radiant (heat) beam source stimulus was applied to the CCl hind paw of each animal. The heat source device was set at an intensity of 50, and a maximum latency period of 15 seconds was set to prevent tissue damage according to the recommendations of the instrument manufacturer. If a paw withdrawal occurred within the 15 second period, an automated control interrupted both the stimulus and timer, turning off the radiant beam and recording the latency of time to paw withdrawal. Data was analyzed using a one-way analysis of variance at each test day.\nSpecifically, the same methods as described above were used except that sulfasalazine was administered at doses of 5 mg/kg; 1 mg/kg or 0.2 mg/kg.\nFollowing the previous experiment, the effect of local doses of clonidine on pain sensitivity was explored. Animals were administered vehicle or test substances through a subcutaneously implanted Alzet pump. Again, the previously described methods for CCl and paw withdrawal latency measurements were followed except that in the presently described experiment animals received either vehicle control; 1 μg/hour Enbrel® as a positive control; 0.01 μg/hour clonidine; 0.05 μg/hour clonidine; or 0.25 μg/hour clonidine."}, "[2]": {"conditions": "rat, in vivo, 100 mg/kg"}, "[3]": {"system": "chronic constriction injury (CCl) of the sciatic nerve", "experiment": "Mechanical (tactile) allodynia, von Frey filaments, after chronic constriction injury", "type": "in vivo, rat", "conditions": "for pain sensitivity in the mechanical allodynia test, in words / decrease in pain sensitivity, mechanical allodynia test: Example 4, FIG. 5B; for sensitivity in mechanical allodynia paradigm compared to controls: Example 3, FIG. 4, Days 8, 15 and 22 following CCl", "experimental": "as §1\nThe ability of sulfasalazine to inhibit pain was also evaluated using a different sensitivity measure following CCl, namely mechanical (or tactile) allodynia. In this study, mechanical allodynia was determined in reaction to probing with von Frey filaments (Stoelting, Wood Dale, Ill.). Mechanical sensitivity was measured on Days 8, 15 and 22 following CCl by determining the median 50% foot withdrawal threshold for von Frey filaments using the up-down method described in Chaplan et al. (J Neurosci Methods 1994; 54:55) which is incorporated by reference herein for its teachings regarding the up-down method. Rats were placed under a plastic cover (9×9×20 cm) on a metal mesh floor. The area tested was the middle glabrous area between the footpads of the plantar surface of the injured hind paw within the L4 innervation area. The plantar area was touched with a series of 9 von Frey hairs with approximately exponentially incremental bending forces (von Frey values: 3.61, 3.8, 4.0, 4.2, 4.41, 4.6, 4.8, 5.0, and 5.2; equivalent to: 0.41, 0.63, 1.0, 1.58, 2.51, 4.07, 6.31, 10, and 15.8 g). The von Frey hair was presented perpendicular to the plantar surface with sufficient force to cause slight bending and held for approximately 3 to 4 seconds. Abrupt withdrawal of the foot (paw flinching) was recorded as a response. Any rat showing a mechanical threshold of more than 3.24 g was eliminated from the study."}, "[4]": {"system": "Complete Freund's Adjuvant (CFA) inflammatory pain model", "conditions": "spinal administration; cited from earlier work"}}, "data": [{"compound": "S=C(S)N1CCCC1", "note": "[PDTC, pyrollidinedithiocarbamate]", "values": [{"measurement": "paw withdrawal latencies versus control levels", "setting": "[1]; Example 4, FIG. 5A, 20 mg/kg or 100 mg/kg, not as effective as other NFκB inhibiting compounds", "value": "did increase paw withdrawal latencies over control levels"}, {"measurement": "drug toxicity", "setting": "[2]", "value": "removed from the study following the second day of testing due to drug toxicity"}, {"measurement": "pain sensitivity in the mechanical allodynia test, in words", "setting": "[3]; compared to animals receiving vehicle or Enbrel", "value": "showed some effect in decreasing pain sensitivity"}, {"measurement": "mechanical allodynia", "setting": "[4]", "value": "significantly reduce"}, {"measurement": "thermal hyperalgesia", "setting": "[4]", "value": "significantly reduce"}]}, {"compound": "Clc1cccc(Cl)c1N=C1NCCN1", "note": "[clonidine]", "values": [{"measurement": "increase in paw withdrawal latency over baseline", "setting": "[1]; Example 4, FIG. 5A, test day 7", "value": "about 78%"}, {"measurement": "increase in paw withdrawal latency over baseline", "setting": "[1]; Example 4, FIG. 5A, test day 21", "value": "~61", "unit": "%"}, {"measurement": "increase in paw withdrawal latency over baseline", "setting": "[1]; Example 4, FIG. 5A, test day 41", "value": "~60", "unit": "%"}, {"measurement": "paw withdrawal latency over baseline", "setting": "[1]; Example 5, FIG. 6, subcutaneously implanted Alzet pump, 0.01 μg/hour, test day 7", "value": "about 60%"}, {"measurement": "paw withdrawal latency over baseline", "setting": "[1]; Example 5, FIG. 6, subcutaneously implanted Alzet pump, 0.01 μg/hour, test day 14", "value": "~64", "unit": "%"}, {"measurement": "paw withdrawal latency over baseline", "setting": "[1]; Example 5, FIG. 6, subcutaneously implanted Alzet pump, 0.01 μg/hour, test day 21", "value": "~79", "unit": "%"}, {"measurement": "paw withdrawal latency over baseline", "setting": "[1]; Example 5, FIG. 6, subcutaneously implanted Alzet pump, 0.05 μg/hour, test day 7", "value": "about 68%"}, {"measurement": "paw withdrawal latency over baseline", "setting": "[1]; Example 5, FIG. 6, subcutaneously implanted Alzet pump, 0.05 μg/hour, test day 14", "value": "~64", "unit": "%"}, {"measurement": "paw withdrawal latency over baseline", "setting": "[1]; Example 5, FIG. 6, subcutaneously implanted Alzet pump, 0.05 μg/hour, test day 21", "value": "~83", "unit": "%"}, {"measurement": "paw withdrawal latency over baseline", "setting": "[1]; Example 5, FIG. 6, subcutaneously implanted Alzet pump, 0.25 μg/hour, test day 7", "value": "about 63%"}, {"measurement": "paw withdrawal latency over baseline", "setting": "[1]; Example 5, FIG. 6, subcutaneously implanted Alzet pump, 0.25 μg/hour, test day 14", "value": "~70", "unit": "%"}, {"measurement": "paw withdrawal latency over baseline", "setting": "[1]; Example 5, FIG. 6, subcutaneously implanted Alzet pump, 0.25 μg/hour, test day 21", "value": "~82", "unit": "%"}, {"measurement": "dose reduction without loss of efficacy", "setting": "[1]; Example 5, local dosing by pump", "value": 25, "unit": "fold"}, {"measurement": "decrease in pain sensitivity, mechanical allodynia test", "setting": "[3]; 0.1 mg/kg, day 8", "value": "about 58%"}, {"measurement": "decrease in pain sensitivity, mechanical allodynia test", "setting": "[3]; 0.1 mg/kg, day 15", "value": "~20", "unit": "%"}, {"measurement": "decrease in pain sensitivity, mechanical allodynia test", "setting": "[3]; 0.1 mg/kg, day 22", "value": "~48", "unit": "%"}, {"measurement": "pain sensitivity in the mechanical allodynia test, in words", "setting": "[3]; low dose (0.02 mg/kg), effect not as strong", "value": "decreased sensitivity"}]}, {"compound": "O=C(O)c1cc(/N=N/c2ccc(S(=O)(=O)Nc3ccccn3)cc2)ccc1O", "note": "[sulfasalazine]", "values": [{"measurement": "mean paw withdrawal latency over baseline", "setting": "[1]; 5 mg/kg, test day 7", "value": "about 80%"}, {"measurement": "mean paw withdrawal latency over baseline", "setting": "[1]; 5 mg/kg, test day 14", "value": "~83", "unit": "%"}, {"measurement": "mean paw withdrawal latency over baseline", "setting": "[1]; 5 mg/kg, test day 21", "value": "~87", "unit": "%"}, {"measurement": "mean paw withdrawal latency over baseline", "setting": "[1]; 50 mg/kg, test day 7", "value": "about 74%"}, {"measurement": "mean paw withdrawal latency over baseline", "setting": "[1]; 50 mg/kg, test day 14", "value": "~79", "unit": "%"}, {"measurement": "mean paw withdrawal latency over baseline", "setting": "[1]; 50 mg/kg, test day 21", "value": "~83", "unit": "%"}, {"measurement": "sensitivity in mechanical allodynia paradigm compared to controls", "setting": "[3]", "value": "decreased sensitivity"}]}, {"compound": "CC1=C(CC(=O)O)c2cc(F)ccc2/C1=C\\c1ccc([S+](C)[O-])cc1", "note": "(centres unmarked) [sulindac]", "values": [{"measurement": "paw withdrawal latency over baseline", "setting": "[1]; Example 4, FIG. 5A, 2 mg/kg, all three test days", "value": "about 65%"}, {"measurement": "paw withdrawal latency over baseline", "setting": "[1]; Example 4, FIG. 5A, 10 mg/kg, test day 7", "value": "about 65%"}, {"measurement": "paw withdrawal latency over baseline", "setting": "[1]; Example 4, FIG. 5A, 10 mg/kg, test day 21", "value": "about 75%"}, {"measurement": "paw withdrawal latency over baseline", "setting": "[1]; Example 4, FIG. 5A, 10 mg/kg, test day 41", "value": "~81", "unit": "%"}, {"measurement": "decrease in pain sensitivity, mechanical allodynia test", "setting": "[3]; 2 mg/kg, day 8", "value": "about 66%"}, {"measurement": "decrease in pain sensitivity, mechanical allodynia test", "setting": "[3]; 2 mg/kg, day 15", "value": "~50", "unit": "%"}, {"measurement": "decrease in pain sensitivity, mechanical allodynia test", "setting": "[3]; 2 mg/kg, day 22", "value": "~35", "unit": "%"}, {"measurement": "decrease in pain sensitivity, mechanical allodynia test", "setting": "[3]; 10 mg/kg, day 8", "value": "about 68%"}, {"measurement": "decrease in pain sensitivity, mechanical allodynia test", "setting": "[3]; 10 mg/kg, day 15", "value": "about 58%"}, {"measurement": "decrease in pain sensitivity, mechanical allodynia test", "setting": "[3]; 10 mg/kg, day 22", "value": "~60", "unit": "%"}]}, {"compound": "Enbrel®", "values": [{"measurement": "mean paw withdrawal latency over baseline", "setting": "[1]; 3 mg/kg, test day 7", "value": "about 60%"}, {"measurement": "mean paw withdrawal latency over baseline", "setting": "[1]; 3 mg/kg, test day 14", "value": "~63", "unit": "%"}, {"measurement": "mean paw withdrawal latency over baseline", "setting": "[1]; 3 mg/kg, test day 21", "value": "~75", "unit": "%"}, {"measurement": "paw withdrawal latency over baseline", "setting": "[1]; Example 2, FIG. 3, positive control, test day 7", "value": "about 51%"}, {"measurement": "paw withdrawal latency over baseline", "setting": "[1]; Example 2, FIG. 3, positive control, test day 14", "value": "~63", "unit": "%"}, {"measurement": "paw withdrawal latency over baseline", "setting": "[1]; Example 2, FIG. 3, positive control, test day 21", "value": "~62", "unit": "%"}, {"measurement": "paw withdrawal latency over baseline, average", "setting": "[1]; Example 4, FIG. 5A, 3 mg/kg, all three test days", "value": "about 51%"}, {"measurement": "paw withdrawal latency over baseline", "setting": "[1]; Example 5, FIG. 6, subcutaneously implanted Alzet pump, 1 μg/hour, test day 7", "value": "about 45%"}, {"measurement": "paw withdrawal latency over baseline", "setting": "[1]; Example 5, FIG. 6, subcutaneously implanted Alzet pump, 1 μg/hour, test day 14", "value": "about 60%"}, {"measurement": "paw withdrawal latency over baseline", "setting": "[1]; Example 5, FIG. 6, subcutaneously implanted Alzet pump, 1 μg/hour, test day 21", "value": "~71", "unit": "%"}, {"measurement": "sensitivity in mechanical allodynia paradigm compared to controls", "setting": "[3]", "value": "decreased sensitivity"}]}]}
